Measurements as given in patent US20230000950A1, “COMPOSITION COMPRISING GLUCAGON AND GLP-1 AND GIP RECEPTOR DUAL AGONIST AND THERAPEUTIC USE OF SAME” (HANMI PHARM. CO., LTD., priority 2019, published 2023).

Legend:
human GIP receptor = molecular target: T1, human GIP receptor (Homo sapiens, UniProt P48546); experiment: cAMP activity of dual agonist in cell line expressing human GIP receptor; assay type: cell-based; conditions: EC50 compared with native GIP, CHO DG44 cells
T1 construct: expressed in transfected cells; host or cells: CHO DG44
T1 sequence (P48546 22-466): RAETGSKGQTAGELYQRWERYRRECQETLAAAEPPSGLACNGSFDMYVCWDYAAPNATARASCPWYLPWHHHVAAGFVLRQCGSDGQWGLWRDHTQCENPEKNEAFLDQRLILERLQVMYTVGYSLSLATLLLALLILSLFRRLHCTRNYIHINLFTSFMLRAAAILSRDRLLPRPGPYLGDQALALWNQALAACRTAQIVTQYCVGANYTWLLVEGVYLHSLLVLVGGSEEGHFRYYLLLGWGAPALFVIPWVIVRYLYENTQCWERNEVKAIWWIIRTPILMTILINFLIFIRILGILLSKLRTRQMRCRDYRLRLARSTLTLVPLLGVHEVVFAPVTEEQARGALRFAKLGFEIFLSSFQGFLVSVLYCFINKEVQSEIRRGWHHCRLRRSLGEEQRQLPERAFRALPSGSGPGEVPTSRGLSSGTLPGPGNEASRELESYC
From the text: (§1) and GIP A recombinant vector was constructed using the expression vector X0GC/dhfr so as to express human GLP-1 receptor and human GIP receptor, then transformed into CHO DG44 cells using lipofectamine, and selectively cultured in a selective medium containing G418 and methotrexate. From this, monoclonal cell lines were selected by limiting dilution. Among these, cell lines showing excellent concentration-dependent cAMP response to GLP-1 and GIP were finally selected.
(§2) In the cell lines expressing human GLP-1 receptor and human GIP receptor produced in Example 6, the activity of the dual agonist synthesized in Example 7 was measured.
(§3) Specifically, the transformed cell lines of Example 6 were subcultured 3 or 4 times a week, and then the subcultured cell lines were seeded in a 384-well plate by 6×10^3 per well and cultured for 24 hours. In HBSS (Hank's balanced salt solution) buffer containing 0.5 mM IBMX (3-isobutyl-1-methylxanthine), 0.1% BSA (bovine serum albumin), and 5 mM HEPES (4-(2-hydroxyethyl)-1-piperazineethanesulfonic acid), native GLP-1 and GIP were suspended at 200 nM and the dual agonist at 1600 nM, and then serially diluted 4-fold 10 times. This was applied to the cAMP assay kit (LANCE cAMP 384 kit, PerkinElmer) and added to each of the cultured cell lines, and then the fluorescence value was measured.

CD-HFD mouse model = experiment: CD-HFD (choline-deficient and high-fat, high-cholesterol diet) mouse model of NASH and fibrosis: NAS and liver collagen expression; assay type: in vivo; conditions: 6 weeks repeated administration Q2D subcutaneous, vs CD-HFD vehicle control
From the text: In order to verify the efficacy on NASH and fibrosis improvement by combined administration of the long-acting glucagon derivative and GLP-1/GIP dual agonist (tirzepatide) according to the present invention prepared in Examples, a CD-HFD (choline-deficient and high-fat, high-cholesterol diet) mouse model was used.
Mice induced by 8-week CD-HFD were divided into a vehicle control group, a long-acting glucagon derivative (1.3 nmol/kg, Q2D, subcutaneous) administration group, a dual agonist (73 nmol/kg, Q2D, subcutaneous) administration group, and a long-acting glucagon derivative and dual agonist combined administration group, and repeated administration was performed for 6 weeks. As a negative control group, a group administered with a vehicle to normal diet mice was used. After 6 weeks of repeated administration, the liver tissue of each mouse was taken as an autopsy, and the efficacy on NASH and fibrosis improvement was evaluated by measuring NAS (NAFLD activity score) through H&E staining and collagen expression through quantitative PCR.
For the statistical processing in all the cases, the vehicle group (control group) and the test groups were compared using one-way ANOVA, and the t-test was used to compare the additional efficacy of the combined administration group with that of the single administration group (* to ** p<0.05 to 0.001 vs. vehicle control group).

human GLP-1 receptor = molecular target: T2, human GLP-1 receptor (Homo sapiens, UniProt P43220); experiment: cAMP activity of dual agonist in cell line expressing human GLP-1 receptor; assay type: cell-based; conditions: EC50 compared with native GLP-1, CHO DG44 cells
T2 construct: expressed in transfected cells; host or cells: CHO DG44
From the text: as §1, §2, §3

[1] = system: high-fat diet-induced obese mouse; experiment: High-fat diet-induced obese mice: body weight, fat weight, blood lipids, HOMA-IR, energy metabolism-related gene expression; assay type: in vivo; conditions: 21 days, subcutaneous; long-acting glucagon derivative 2.0 nmol/kg once every two days, tirzepatide 20 nmol/kg once every two days, Saxenda 50 nmol/kg twice a day
Description: A high-fat diet-induced obese mouse, which was widely used as an obese animal model, was used for this study. The body weight of the mice was about 50 g to 55 g before administration. During the study period, seven mice were housed and had free access to water. The lights were turned off from 6 P.M. to 6 A.M.
The administration was performed by subcutaneous injection in all cases.
The experiment was terminated on the 21st day, the changes in body weight of the mice corresponding to each group were measured every two days during the experiment. After the experiment was terminated, the fat weight, blood lipid levels, HOMA-IR, and energy metabolism-related gene expression in tissues were measured.

T2 sequence (P43220 24-463): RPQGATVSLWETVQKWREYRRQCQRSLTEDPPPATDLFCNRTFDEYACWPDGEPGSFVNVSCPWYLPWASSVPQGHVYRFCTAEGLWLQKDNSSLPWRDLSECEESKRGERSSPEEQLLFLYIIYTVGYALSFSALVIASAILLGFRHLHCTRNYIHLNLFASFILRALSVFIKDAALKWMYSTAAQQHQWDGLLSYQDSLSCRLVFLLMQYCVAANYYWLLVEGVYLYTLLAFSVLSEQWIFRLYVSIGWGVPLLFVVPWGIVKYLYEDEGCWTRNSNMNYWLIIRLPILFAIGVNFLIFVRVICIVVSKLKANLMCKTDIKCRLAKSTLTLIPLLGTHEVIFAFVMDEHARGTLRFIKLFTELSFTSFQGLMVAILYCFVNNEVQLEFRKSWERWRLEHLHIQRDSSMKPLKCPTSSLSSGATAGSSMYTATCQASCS

CC[C@H](C)[C@H](NC(=O)[C@H](CC(C)C)NC(=O)[C@H](Cc1c[nH]c2ccccc12)NC(=O)[C@H](CCC(N)=O)NC(=O)[C@@H](NC(=O)[C@H](Cc1ccccc1)NC(=O)[C@H](C)NC(=O)[C@H](CCCCNC(=O)COCCOCCNC(=O)COCCOCCNC(=O)CC[C@H](NC(=O)CCCCCCCCCCCCCCCCCCC(=O)O)C(=O)O)NC(=O)[C@H](CCC(N)=O)NC(=O)[C@H](C)NC(=O)[C@@H](NC(=O)[C@H](CCCCN)NC(=O)[C@H](CC(=O)O)NC(=O)[C@H](CC(C)C)NC(=O)C(C)(C)NC(=O)[C@@H](NC(=O)[C@H](CO)NC(=O)[C@H](Cc1ccc(O)cc1)NC(=O)[C@H](CC(=O)O)NC(=O)[C@H](CO)NC(=O)[C@@H](NC(=O)[C@H](Cc1ccccc1)NC(=O)[C@@H](NC(=O)CNC(=O)[C@H](CCC(=O)O)NC(=O)C(C)(C)NC(=O)[C@@H](N)Cc1ccc(O)cc1)[C@@H](C)O)[C@@H](C)O)[C@@H](C)CC)[C@@H](C)CC)C(C)C)C(=O)N[C@@H](C)C(=O)NCC(=O)NCC(=O)N1CCC[C@H]1C(=O)N[C@@H](CO)C(=O)N[C@@H](CO)C(=O)NCC(=O)N[C@@H](C)C(=O)N1CCC[C@H]1C(=O)N1CCC[C@H]1C(=O)N1CCC[C@H]1C(=O)N[C@@H](CO)C(N)=O [Dual agonist (tirzepatide)]
Relative in vitro activity to native ligand (EC50), GIP receptor (human GIP receptor): 6.7% | NAS (NAFLD activity score) (CD-HFD mouse model; long-acting glucagon derivative 1.3 nmol/kg, dual agonist 73 nmol/kg, H&E staining): significantly reduced | collagen expression in liver tissue (CD-HFD mouse model; quantitative PCR): significantly reduced | Relative in vitro activity to native ligand (EC50), GLP-1 receptor (human GLP-1 receptor): 1.3% | change in body weight compared to before administration [1]: −19.39%
